Values after ≈ are worked out from the molar mass of the structure shown. Read-outs that look alike come from different tables or passages of the source.
Key:
[1] = system: Pr. morganii; assay: MIC by Steers' agar dilution method; details: Morganella morganii
[2] = system: Pr. mirabilis; assay: MIC by Steers' agar dilution method; details: Proteus mirabilis
[3] = system: B. anthracis; assay: microbe, parasite or virus in culture; assay type: cell-based; details: Bacillus anthracis
[4] = system: S. typhimurium; assay: MIC by Steers' agar dilution method; details: Salmonella enterica
[5] = system: K. pneumoniae A9977; assay: Standard experimental infection in mice; assay type: in vivo; details: for ED50: Klebsiella pneumoniae, A9977, read-out: PD50
[6] = system: E. coli Juhl; assay: Standard experimental infection in mice; assay type: in vivo; details: Table 6
[7] = system: P. vulgaris A9436 (Pv-1); assay: Standard experimental infection (single sc treatment)
[8] = strain not given (1st of 2), MHA, Example 10
[9] = strain not named (2nd of 2), MHA, Example 10

O=C(O)Cn1nc2ccc(SCC3=C(C(=O)O)N4C(=O)C(NC(=O)[C@H](O)c5ccccc5)[C@H]4SC3)nn2c1=O (stereo partly drawn) [BB-S488, 7-(D-Mandelamido)-3-(2-carboxymethyl-2,3-dihydro-s-triazolo[4,3-b]pyridazin-3-on-6-ylthiomethyl)-3-cephem-4-carboxylic Acid]
MIC ([1]; A9553, MHA, Table 1): > 100 µg/mL
MIC ([1]; A20031, MHA, Table 1): 0.1 µg/mL (≈ 0.175 µM)
MIC ([1]; Pg-1 A9553 (β-lactamase), HIA, Table 4): > 100 µg/mL
MIC ([1]; Pg-1 A9553 (β-lactamase), MHA, Table 4): > 100 µg/mL
MIC ([1]; Pg-1 A9553 (β-lactamase), NA, Table 4): > 100 µg/mL
MIC ([1]; Pg-1 A9553, MHA, Table 3): > 100 µg/mL
MIC ([1]; Pg-2 A20031, HIA, Table 4): 0.2 µg/mL (≈ 0.349 µM)
MIC ([1]; Pg-2 A20031, MHA, Table 3): 0.2 µg/mL (≈ 0.349 µM)
MIC ([1]; Pg-2 A20031, MHA, Table 4): 0.1 µg/mL (≈ 0.175 µM)
MIC ([1]; Pg-2 A20031, NA, Table 4): 0.2 µg/mL (≈ 0.349 µM)
MIC ([1]; Pg-3 A9636, MHA, Table 3): 0.8 µg/mL (≈ 1.4 µM)
MIC ([1]; Pg-5 A15166, MHA, Table 3): 0.1 µg/mL (≈ 0.175 µM)
MIC ([1]; Pg-6 A20455 (β-lactamase), HIA, Table 4): 0.8 µg/mL (≈ 1.4 µM)
MIC ([1]; Pg-6 A20455 (β-lactamase), MHA, Table 4): 0.4 µg/mL (≈ 0.699 µM)
MIC ([1]; Pg-6 A20455 (β-lactamase), NA, Table 4): 0.4 µg/mL (≈ 0.699 µM)
MIC ([1]; Pg-6 A20455, MHA, Table 3): 0.4 µg/mL (≈ 0.699 µM)
MIC ([1]; Pg-7 A20457, MHA, Table 3): 0.2 µg/mL (≈ 0.349 µM)
MIC ([1]; Pg-8 A15153, MHA, Table 3): 0.1 µg/mL (≈ 0.175 µM)
MIC ([1]; Pg-9 A15149, MHA, Table 3): 0.8 µg/mL (≈ 1.4 µM)
MIC [1, 8]: > 100 µg/mL
MIC [1, 9]: 0.2 µg/mL (≈ 0.349 µM)
MIC ([2]; A9554, MHA, Table 1): 0.05 µg/mL (≈ 0.0873 µM)
MIC ([2]; A9900, MHA, Table 1): 0.1 µg/mL (≈ 0.175 µM)
MIC ([2]; Pm-1 A9554, HIA, Table 4): 0.1 µg/mL (≈ 0.175 µM)
MIC ([2]; Pm-1 A9554, MHA, Table 3): 0.1 µg/mL (≈ 0.175 µM)
MIC ([2]; Pm-1 A9554, MHA, Table 4): 0.1 µg/mL (≈ 0.175 µM)
MIC ([2]; Pm-1 A9554, NA, Table 4): 0.1 µg/mL (≈ 0.175 µM)
MIC ([2]; Pm-2 A9900, HIA, Table 4): 0.2 µg/mL (≈ 0.349 µM)
MIC ([2]; Pm-2 A9900, MHA, Table 3): 0.2 µg/mL (≈ 0.349 µM)
MIC ([2]; Pm-2 A9900, MHA, Table 4): 0.2 µg/mL (≈ 0.349 µM)
MIC ([2]; Pm-2 A9900, NA, Table 4): 0.1 µg/mL (≈ 0.175 µM)
MIC ([2]; Pm-3 A20119, MHA, Table 3): 0.4 µg/mL (≈ 0.699 µM)
MIC ([2]; Pm-4 A20454, MHA, Table 3): 0.2 µg/mL (≈ 0.349 µM)
MIC ([2]; Pm-5 A9702, MHA, Table 3): 0.1 µg/mL (≈ 0.175 µM)
MIC ([2]; Pm-6 A21222, MHA, Table 3): 1.6 µg/mL (≈ 2.79 µM)
MIC [2, 8]: 0.05 µg/mL (≈ 0.0873 µM)
MIC [2, 9]: 0.05 µg/mL (≈ 0.0873 µM)
MIC ([3]; Ba-3 A9504, HIA, Table 4): 0.2 µg/mL (≈ 0.349 µM)
MIC ([3]; Ba-3 A9504, MHA, Table 4): 0.2 µg/mL (≈ 0.349 µM)
MIC ([3]; Ba-3 A9504, NA, Table 4): 0.4 µg/mL (≈ 0.699 µM)
MIC ([3]; MHA, Example 10): 0.2 µg/mL (≈ 0.349 µM)
MIC [4]: 0.1 µg/mL (≈ 0.175 µM)
No. of survivors/No. tested ([5]; 0.1 mg./kg., Table 6): 0/5
No. of survivors/No. tested ([5]; 0.4 mg./kg., Table 6): 4/5
No. of survivors/No. tested ([5]; 1.6 mg./kg., Table 6): 5/5
No. of survivors/No. tested ([5]; 6.3 mg./kg., Table 6): 5/5
No. of survivors/No. tested ([5]; 25 mg./kg., Table 6): 5/5
ED50 ([5]; Run C-805, 3×10^3 LD50, single sc): 0.26 mg/kg
ED50 ([5]; Table 6): 0.26 mg/kg
No. of survivors/No. tested ([5]; Run C-805, 3×10^3 LD50, single sc, 0.1 mg./kg.): 0/5
No. of survivors/No. tested ([5]; Run C-805, 3×10^3 LD50, single sc, 0.4 mg./kg.): 4/5
No. of survivors/No. tested ([5]; Run C-805, 3×10^3 LD50, single sc, 1.6 mg./kg.): 5/5
No. of survivors/No. tested ([5]; Run C-805, 3×10^3 LD50, single sc, 6.3 mg./kg.): 5/5
No. of survivors/No. tested ([5]; Run C-805, 3×10^3 LD50, single sc, 25 mg./kg.): 5/5
No. of survivors/No. tested ([6]; 0.1 mg./kg.): 2/5
No. of survivors/No. tested ([6]; 0.4 mg./kg.): 5/5
No. of survivors/No. tested ([6]; 1.6 mg./kg.): 5/5
No. of survivors/No. tested ([6]; 6.3 mg./kg.): 5/5
No. of survivors/No. tested ([6]; 25 mg./kg.): 5/5
ED50 ([6]; Escherichia coli, read-out: PD50): 0.12 mg/kg
ED50 ([7]; Proteus vulgaris, in Mus musculus, sc, read-out: PD50): 1.1 mg/kg
No. of survivors/No. tested ([7]; Run C-808, single sc, 0.4 mg./kg.): 1/5

From patent US4112228A, “7-(D-α-Hydroxy-2-arylacetamido)-3-(2-carboxyalkyl-2,3-dihydro-s-tri azolo-[4,3-b]pyridazin-3-on-6-ylthiomethyl)-3-cephem-4-carboxylic acids and derivatives” (priority 1977, dated 1978)
